Data taken from patent US6649763B1, “Optically active quinoline carboxylic acid derivatives with 7-pyrrolidine substituents causing optical activity and a process for the preparation thereof” (Dong Wha Pharm. Ind. Co., Ltd., priority 1999, dated 2003).

Columns and labels:
[1] = test system: Escherichia coli DC 0; assay: Antibacterial activity in vitro (MIC, agar dilution); type: cell-based; details: DC0, standard strain Escherichia coli DC 0, read-out: minimum inhibitory concentration (MIC)
Protocol: (§1) The optically active quinoline carboxylic acid derivatives of the present invention were tested as to whether they could be useful as antibacterial compounds. In this regard, the compounds were measured for minimum inhibitory concentration (MIC: unit μg/ml) according to an agar dilution process (Hoechst 345) in which Muller-Hinton agars were diluted two fold. For comparison, ciprofloxacin and sparfloxacin were used as controls. Corresponding enantiomers and racemates of the compounds of interest were also used as comparative ones. Bacteria were inoculated at an amount of about 10^7 cfu/ml onto each agar. 18 hours after the inoculation at 37° C., the growth of the bacteria was observed. As to methicillin-resistant strains, their growth was observed 48 hours after the inoculation at […]. Hoechst standard strains were used as the test bacteria.

[2] = test system: Escherichia coli DC 2; assay: as above; type: cell-based; details: DC2, standard strain Escherichia coli DC 2, read-out: minimum inhibitory concentration (MIC)
Protocol: as §1

[3] = test system: Pseudomonas aeruginosa 1771M; assay: as above; type: cell-based; details: read-out: minimum inhibitory concentration (MIC)
Protocol: as §1

[4] = test system: Staphylococcus aureus 121E; assay: as above; type: cell-based; details: resistant strain Staphylococcus aureus 121E, read-out: minimum inhibitory concentration (MIC)
Protocol: as §1

[5] = test system: Staphylococcus aureus 179; assay: as above; type: cell-based; details: resistant strain Staphylococcus aureus 179, read-out: minimum inhibitory concentration (MIC)
Protocol: as §1

[6] = test system: Staphylococcus aureus 208E; assay: as above; type: cell-based; details: resistant strain Staphylococcus aureus 208E, read-out: minimum inhibitory concentration (MIC)
Protocol: as §1

[7] = test system: Staphylococcus aureus 241; assay: as above; type: cell-based; details: resistant strain Staphylococcus aureus 241, read-out: minimum inhibitory concentration (MIC)
Protocol: as §1

[8] = test system: Staphylococcus aureus 256E; assay: as above; type: cell-based; details: resistant strain Staphylococcus aureus 256E, read-out: minimum inhibitory concentration (MIC)
Protocol: as §1

[9] = test system: Staphylococcus aureus 285; assay: as above; type: cell-based; details: standard strain Staphylococcus aureus 285, read-out: minimum inhibitory concentration (MIC)
Protocol: as §1

[10] = test system: Staphylococcus aureus 293; assay: as above; type: cell-based; details: resistant strain Staphylococcus aureus 293, read-out: minimum inhibitory concentration (MIC)
Protocol: as §1

[11] = test system: Staphylococcus aureus 303; assay: as above; type: cell-based; details: resistant strain Staphylococcus aureus 303, read-out: minimum inhibitory concentration (MIC)
Protocol: as §1

[12] = test system: Staphylococcus aureus 503; assay: as above; type: cell-based; details: standard strain Staphylococcus aureus 503, read-out: minimum inhibitory concentration (MIC)
Protocol: as §1

[13] = test system: Staphylococcus aureus 690E; assay: as above; type: cell-based; details: resistant strain Staphylococcus aureus 690E, read-out: minimum inhibitory concentration (MIC)
Protocol: as §1

[14] = test system: Staphylococcus aureus 692E; assay: as above; type: cell-based; details: resistant strain Staphylococcus aureus 692E, read-out: minimum inhibitory concentration (MIC)
Protocol: as §1

[15] = test system: Staphylococcus aureus 693E; assay: as above; type: cell-based; details: resistant strain Staphylococcus aureus 693E, read-out: minimum inhibitory concentration (MIC)
Protocol: as §1

[16] = test system: Staphylococcus aureus 88E; assay: as above; type: cell-based; details: resistant strain Staphylococcus aureus 88E, read-out: minimum inhibitory concentration (MIC)
Protocol: as §1

[17] = test system: Staphylococcus aureus SG511; assay: as above; type: cell-based; details: standard strain Staphylococcus aureus SG511, read-out: minimum inhibitory concentration (MIC)
Protocol: as §1

[18] = test system: Streptococus faecium MD 8b; assay: as above; type: cell-based; details: standard strain Streptococus faecium MD 8b, read-out: minimum inhibitory concentration (MIC)
Protocol: as §1

[19] = test system: Streptococus pyogenes 308A; assay: as above; type: cell-based; details: standard strain Streptococus pyogenes 308A, read-out: minimum inhibitory concentration (MIC)
Protocol: as §1

[20] = test system: Streptococus pyogenes 77A; assay: as above; type: cell-based; details: standard strain Streptococus pyogenes 77A, read-out: minimum inhibitory concentration (MIC)
Protocol: as §1

[21] = test system: Enterobacter cloacae P99; assay: as above; type: cell-based; details: standard strain Enterobacter cloacae P99, read-out: minimum inhibitory concentration (MIC)
Source text: Corresponding enantiomers and racemates of the compounds of interest were also used as comparative ones. Bacteria were inoculated at an amount of about 10^7 cfu/ml onto each agar. […] Hoechst standard strains were used as the test bacteria.

[22] = test system: Escherichia coli; assay: Antibacterial activity in vitro, potency comparison; type: cell-based; details: against Escherichia coli, a representative Gram-negative strain
Protocol: as §1

[23] = test system: Gram-positive bacteria; assay: as above; type: cell-based; details: against Gram-positive bacteria
Protocol: as §1

[24] = test system: Staphylococcus aureus and Staphylococcus epidermis, both resistant to quinolone antibacterial agents; assay: as above; type: cell-based; details: for times as potent in antibacterial activity as ciprofloxacin / times as potent in antibacterial activity as sparfloxacin: against resistant Staphylococcus aureus and Staphylococcus epidermis; for fold more potent antibacterial activity than its enantiomer / fold more potent antibacterial activity than its racemate: against resistant staphylcoccus aureus and staphylococcus epidermis (Table 2)
Protocol: as §1

[25] = in vivo; details: SD, rat, in vivo, po, 40 mg/kg
Protocol: After being starved for 16 hours, SD rats were orally administered at a dose of 40 mg/5 ml/kg with the compounds of interest and at a dose of 50 mg/5 ml/kg with the control. Immediately after being drawn at predetermined times from the eyeballs, blood was separated into plasma and other ingredients and quantitatively analyzed for pharmacokinetic parameters by use of high performance liquid chromatograph (HPLC).

[26] = test system: Staphylococcus epidermidis 319; assay: Antibacterial activity in vitro (MIC, agar dilution); type: cell-based; details: Staphylococcus epidermidis, 319, resistant strain Staphylococcus epidermidis 319, read-out: minimum inhibitory concentration (MIC)
Protocol: as §1

[27] = test system: Staphylococcus epidermidis 329; assay: as above; type: cell-based; details: Staphylococcus epidermidis, 329, resistant strain Staphylococcus epidermidis 329, read-out: minimum inhibitory concentration (MIC)
Protocol: as §1

[28] = Phototoxicity test; type: in vivo; details: CD-1 female mice, oral 50 mg/kg
Protocol: It is known that the presence of a halogen atom at the 8-position of the quinolone nuclei causes phototoxicity.
After 16 hours of starvation, CD-1 female mice were orally administered with a dose of 50 mg/kg of the compounds and allowed to be exposed for 4.5 hours to a UVA light source. The mice were located 15 cm away from the light source. Whether the mice were damaged in their ears was adopted as a main factor for the phototoxicity and determined after 24 hour and 48 hour UV exposure. The edema which the mice suffered were examined by measuring the thickness changes of their ears with the aid of electronic calipers and calculating average values. Also, an observation was made as to whether the mice suffered from erythema.

[29] = after 48 hours of the UV exposure

Row | Structure (SMILES) | MIC [1] [µg/mL] | MIC [2] [µg/mL] | MIC [3] [µg/mL] | MIC [4] [µg/mL] | MIC [5] [µg/mL] | MIC [6] [µg/mL] | MIC [7] [µg/mL] | MIC [8] [µg/mL] | MIC [9] [µg/mL] | MIC [10] [µg/mL] | MIC [11] [µg/mL] | MIC [12] [µg/mL] | MIC [13] [µg/mL] | MIC [14] [µg/mL] | MIC [15] [µg/mL] | MIC [16] [µg/mL] | MIC [17] [µg/mL] | MIC [18] [µg/mL] | MIC [19] [µg/mL] | MIC [20] [µg/mL] | also measured
1 | CO/N=C1\CN(c2nc3c(cc2F)c(=O)c(C(=O)O)cn3C2CC2)CC1(C)CN.Cl (single isomer, unassigned; (-)) [Example 9, (−)-7-(4-Aminomethyl-4-methyl-3-(Z)-methyloxyiminopyrrolidin-1-yl)-1-cyclopropyl-6-fluoro-4-oxo-1,4-dihydro[1,8]naphthyridine-3-carboxylic Acid Hydrochloride] | 0.004 | 0.195 | 0.391 | < 0.002 | 0.098 | < 0.002 | 0.098 | < 0.002 | 0.007 | 0.098 | 0.098 | 0.004 | < 0.002 | < 0.002 | < 0.002 | < 0.002 | 0.004 | 0.049 | 0.025 | 0.013 | MIC [21]: 0.025 µg/mL; fold more potent antibacterial effect than ciprofloxacin [22]: almost the same antibacterial potency; fold more potent antibacterial effect than sparfloxacin [22]: almost the same antibacterial potency; fold higher antibacterial activity than ciprofloxacin [23]: 4-112 fold; fold higher antibacterial activity than sparfloxacin [23]: 4-30 fold; times as potent in antibacterial activity as ciprofloxacin [24]: 128-390 times; times as potent in antibacterial activity as sparfloxacin [24]: 24-64 times; fold more potent antibacterial activity than its enantiomer [24]: 8-32 fold; fold more potent antibacterial activity than its racemate [24]: 4 fold; Cmax [25]: 9060 ± 2040 ng/mL; half-life [25]: 4.5 h
2 | CO/N=C1\CN(c2c(F)c(N)c3c(=O)c(C(=O)O)cn(C4CC4)c3c2F)CC1(C)CN.Cl (single isomer, unassigned; (-)) [Example 14, (−)-5-Amino-7-(4-aminomethyl-4-methyl-3-(Z)-methyloxyiminopyrrolidin-1-yl)-1-cyclopropyl-6,8-difluoro-4-oxo-1,4-dihydro-3-quinolinecarboxylic Acid Hydrochloride] | 0.004 | < 0.002 | 0.195 | < 0.002 | 0.013 | < 0.002 | 0.013 | < 0.002 | < 0.002 | 0.013 | 0.013 | < 0.002 | < 0.002 | < 0.002 | < 0.002 | < 0.002 | < 0.002 | 0.013 | 0.004 | < 0.002 | MIC [26]: 0.025 µg/mL; MIC [27]: 0.025 µg/mL; MIC [21]: < 0.002 µg/mL; fold more potent antibacterial effect than ciprofloxacin [22]: 49 fold; fold more potent antibacterial effect than sparfloxacin [22]: 12-49 fold; fold higher antibacterial activity than ciprofloxacin [23]: 30-781 fold; fold higher antibacterial activity than sparfloxacin [23]: 24-195 fold; times as potent in antibacterial activity as ciprofloxacin [24]: 129-962 times; times as potent in antibacterial activity as sparfloxacin [24]: 24-481 times; fold more potent antibacterial activity than its enantiomer [24]: 2-63 fold; fold more potent antibacterial activity than its racemate [24]: up to four fold more potent; Cmax [25]: 6670 ± 3330 ng/mL; half-life [25]: 6.94 h; Thickness of mice's ears after UV exposure, After 24 hr ([28]; UVA light source): 21.6 ± 0.52; Thickness of mice's ears after UV exposure, After 48 hr ([28]; UVA light source): 21.6 ± 0.52; edema and erythema observed after UV exposure [28, 29]: no erythema was observed; increase in ear thickness compared with before the UV exposure [28, 29]: 16.8%; Thickness of mice's ears, Before UV exposure ([28]; baseline before UVA): 18.5 ± 0.76
